Measurements taken from article PMC12298629, “New Derivatives of Caracasine Acid with Anti-Leukemic Activity and Limited Effectiveness in Spheroid Cultures” (Pharmaceuticals, 2025).
pIC50: −log10 of the molar value.

Experiments:
HCT116KO53 spheroids = test: Spheroid viability assay (CellTiter-Glo 3D), HCT116 p53 KO spheroids; type: cell-based; conditions: HCT-116, human tumors spheroids, 72 h, 100 pM to 50 μM
Experimental: Spheroid culture aims to analyze the drug’s effect on complex structures resembling solid tumors. The spheroids were prepared using the specific nonadherent plates for spheroid formation (Nunc Sphera, Thermo Fisher, Waltham, MA, USA) according to the simple protocol outlined by the manufacturer. The cell lines HCT116 parental, HCT116KOTp53, A549, and U2OS were cultured at a density of 2500 cells per well using medium containing 10% fetal calf serum and antibiotics: McCoy’s 5A medium for HCT116, F-12K (Kaighn’s Modified) for A549, and Dulbecco’s Modified Eagle Medium (DMEM). The cells were grown in culture for 48 h as recommended by the manufacturer and as described by Das et al. and Muñoz-Garcia et al..
The cell viability of the treated spheroids was assessed using the kit CellTiter-Glo 3D (Promega Corporation, Madison, WI, USA). The kit is designed to measure ATP as an indicator of viability, generating a luminescent readout that is more sensitive than colorimetric or fluorescence-based methods. The spheroids were cultivated with compounds at concentrations ranging from 100 pM to 50 μM in triplicate for 72 h, and the luminescence was measured using the Enspire apparatus (PerkinElmer). A standard curve was performed for each analysis as recommended by the manufacturer.

normal human leukocytes = system: normal human leukocytes; set-up: method as in PMID 31449809, PMID 35430982; conditions: 0.1 nM to 50 μM in 0.01% DMSO; cited from earlier work
leukemic cells = test: Effect on the cell cycle; type: cell-based, human; conditions: comparable concentrations to caracasine acid

| Compound | pIC50 (HCT116KO53 spheroids) | Effect on primary leukocytes (normal human leukocytes) | Effect on the cell cycle (leukemic cells) |
| --- | --- | --- | --- |
| C=C1C(=O)C23CCC(C(=C)C)C(C)(CCC(=O)OC(C)=O)C2CCC1C3 (stereo not shown) [Compound 7, Caracasine-Acetic Anhydride] | < 4.30 | – | – |
| C=C1C(=O)C23CCC(C(=C)C)C(C)(CCC(=O)OC)C2CCC1C3 (stereo not shown) [Compound 2, Caracasine] | < 4.30 | no significant effect | – |
| C=C(C)C1CCC23CC(CCC2C1(C)CCC(=O)O)C(C)C3=O (single isomer, unassigned; ent-3) [Compound 5, Ent-3,4-Seco-15-Oxo-Kaur-4(19)-en-3-Oic Acid] | < 4.30 | – | no effect |
| C=C(C)C1CCC23CC(CCC2C1(C)CCC(=O)OC(C)=O)C(C)C3=O (single isomer, unassigned; ent-3) [Compound 6, Ent-3,4-Seco-15-Oxo-Kaur-4(19)-en-Acetic Anhydride] | < 4.30 | – | no effect |
